Assay results from publication PMC10810434, “Thymoquinone-protoflavone hybrid molecules as potential antitumor agents” (PLOS ONE, 2024).
Read-outs that look alike come from different tables or passages of the source.

Columns and labels:
MDA-MB-231 = experiment: In vitro antiproliferative MTT assay on MDA-MB-231; format: cell-based, human; settings: mean of two independent measurements with three replicates each, read-out: Calculated IC50 ± SEM, MDA-MB-231
From the text: (§1) Gynecological cancer cell lines of human origin including breast cancer like the triple negative MDA-MB-231 and estrogen receptor positive MCF-7, […] cervical adenocarcinoma (HeLa), and human glioblastoma (U-87) cell lines were used as in vitro models to study the antiproliferative effects of the evaluated compounds. All cell lines were cultivated in T-75 flasks in a minimal essential medium (MEM) supplemented with 10% heat-inactivated fetal bovine serum (FBS), 1% antibiotic-antimycotic mixture (penicillin-streptomycin-amphotericin B) and 1% non-essential amino acids. Non-cancerous human lung fibroblast cell line (MRC-5) was maintained in low glucose Dulbecco’s Modified Eagle Medium (DMEM) supplemented with 20% heat-inactivated FBS, 1% antibiotic-antimycotic mixture and 4 mM L-glutamine. The cells were incubated at 37°C in 5% CO^2 incubator. The cells were seeded in 96-well plates at a density of 5 x 10^3 in 100 μL per well, except for the U-87 and MRC-5 that were seeded at 1 x 10^4 density and incubated at the same conditions for overnight to allow the cells’ attachment to the well’s bottom before the treatment.
(§2) The compounds were dissolved in dimethyl sulfoxide (DMSO) as 10 mM standard stock solutions and kept at -20°C with minimum light exposure. Immediately before each experiment, the stock solution was used and diluted with a culture medium to get the final concentrations. The values of half-maximal inhibitory concentration (IC50) were determined by exposure of the cells into eight different concentrations of each tested compound (0.39, 0.78, 1.56, 3.125, 6.25, 12.5, 25 and 50 μM). Temozolomide (TMZ) and cisplatin were used as positive controls in the case of U-87 and the gynecological cell lines, respectively. The negative control wells included the cells with only MEM treatment. The plates were incubated for up to 72 hours under the same abovementioned incubation conditions. The colorimetric MTT assay was used to assess the compounds’ effect on cell proliferation. Briefly, 20 μL of MTT solution ([3-(4,5-dimethylthiazol-2-yl)-2,5-diphenyltetrazolium bromide], 5 mg/mL in PBS, Duchefa Biochemie BV, Haarlem, The Netherlands) was added to each well including the negative controls and kept under the usual incubation circumstances for additional four hours. Subsequently, the media was carefully aspirated and 100 μL of DMSO was added to each well and the plates were gently shaken for 30 min to solubilize the precipitated crystals of purple formazan. Absorbance was measured at a wavelength of 545 nm using a microplate UV-VIS reader (SPECTROstar Nano, BMG Labtech GmbH, Offenburg, Germany). The same procedure was performed using MRC-5 cells to determine the cancer selectivity of the most promising test compounds.
(§3) Cell viability data were collected from two separate experiments in triplicates and evaluated using GraphPad Prism 9.5.1 (GraphPad Software Inc., San Diego, CA, USA). The half-maximal inhibitory concentration (IC50) values were determined using the log inhibitor vs normalized response nonlinear regression model. Difference between the IC50 values of a hybrid and its corresponding fragments’ experimental combination was statistically evaluated using unpaired T-test. Cancer selectivity of the most promising test compounds was characterized by calculating and comparing their selectivity index (SI). The value of the parameter derives from the ratio of IC50 value of test compound on MRC-5 cells and that on U-87 cells. The higher the value, the better the cancer selectivity of the test compound.

MCF-7 = experiment: In vitro antiproliferative MTT assay on MCF-7; format: cell-based, human; settings: mean of two independent measurements with three replicates each, read-out: Calculated IC50 ± SEM, MCF-7
From the text: as §1, §2, §3

HeLa = experiment: In vitro antiproliferative MTT assay on HeLa; format: cell-based, human; settings: up to 72 hours, mean of two independent measurements with three replicates each, read-out: Calculated IC50 ± SEM, HeLa
From the text: as §1, §2, §3

U-87 glioblastoma cells = experiment: In vitro antiproliferative MTT assay on U-87; format: cell-based, human
From the text: as §1, §2, §3

[1] = system: MRC-5 non-cancerous human lung fibroblast cell line; experiment: In vitro antiproliferative MTT assay on MRC-5 (cancer selectivity); format: cell-based; settings: for IC50: MRC5, Table 3, non-cancerous human lung fibroblasts, read-out: Calculated IC50 ± SEM, MRC-5; for Selectivity index SI = IC50 (MRC-5)/IC50 (U-87): MRC-5 vs U-87
From the text: as §1, §2, §3

U-87 cells = experiment: Combination assay: equimolar fragment mixtures vs hybrids on U-87; format: cell-based, human; settings: U-87 cells
Description: as §2
Combination study was performed by treating cells with equimolar mixtures of the abovementioned fragments or their hybrids, and corresponding cell viability data were comparatively evaluated. In this bioassay, at least two separate experiments were performed, each in triplicate. The dataset was then subjected to appropriate statistical analysis. The calculated IC50 values were subsequently employed to quantitatively assess the extent of pharmacological benefit obtained through the hybridization of fragments in comparison to the cytotoxic effect produced by the experimental combination of PA or its derivatives and TQ fragments.
as §3

[2] = Homo sapiens, MDA-MB-231, up to 72 hours
[3] = Homo sapiens, MCF7, up to 72 hours
[4] = Homo sapiens, MTT, up to 72 hours, mean of two independent measurements with three replicates each, read-out: Calculated IC50 ± SEM, U-87
[5] = Homo sapiens, Table 3, U-87 glioblastoma, read-out: Calculated IC50 ± SEM, U-87 (Table 3)

| SMILES | IC50 (MDA-MB-231; up to 72 hours) | IC50 (MCF-7; up to 72 hours) | IC50 (HeLa) | IC50 (U-87 glioblastoma cells; MTT, up to 72 hours, mean of two independent measurements with three replicates each, read-out: Calculated IC50 ± SEM, U-87) | IC50 (MDA-MB-231; [2]) | IC50 (MCF-7; [3]) | IC50 (HeLa; Homo sapiens, HeLa) | IC50 (U-87 glioblastoma cells; [4]) | IC50 (U-87 glioblastoma cells; [5]) | IC50 [1] | Selectivity index SI = IC50 (MRC-5)/IC50 (U-87) [1] | Hybrid vs corresponding 1:1 fragment mixture, antiproliferative activity in words (U-87 cells) |
| --- | --- | --- | --- | --- | --- | --- | --- | --- | --- | --- | --- | --- |
| N.N.[Cl][Pt][Cl] [Cis, cisplatin, reference compound] | 9.71 ± 0.51 µM | 6.55 ± 0.77 µM | 16 ± 2 µM | 9.13 ± 1.79 µM |  |  |  |  |  |  |  |  |
| CC1=CC(=O)C(C(C)C)=CC1=O [Compound 2, 2-isopropyl-5-methylcyclohexa-2,5-diene-1,4-dione] |  |  |  |  | 7.02 ± 0.17 µM | 24 ± 1.37 µM | > 100 µM | 39.1 ± 3.53 µM |  |  |  |  |
| CC1=C(CCC(=O)O)C(=O)C(C(C)C)=CC1=O [Compound 3, 3-(5-isopropyl-2-methyl-3,6-dioxocyclohexa-1,4-dien-1-yl)propanoic acid] |  |  |  |  | 38.2 ± 2.81 µM | > 100 µM | > 100 µM | 77.7 ± 1.61 µM |  |  |  |  |
| CC1=CC(=O)C(C(C)C)=C(CCC(=O)O)C1=O [Compound 4, 3-(2-isopropyl-5-methyl-3,6-dioxocyclohexa-1,4-dien-1-yl)propanoic acid] |  |  |  |  | 12.4 ± 0.37 µM | > 100 µM | > 100 µM | 88.7 ± 5.17 µM | 88.7 ± 5.17 µM | 40.2 ± 1.04 µM |  |  |
| O=C1C=CC(O)(c2cc(=O)c3c(O)cc(O)cc3o2)C=C1 [Compound 6, Protoapigenone] |  |  |  |  | 0.57 ± 0.07 µM | 0.66 ± 0.06 µM | 1.8 ± 0.09 µM | 1.73 ± 0.11 µM | 1.73 ± 0.11 µM | 2.62 ± 0.2 µM | 1.51 |  |
| COC1(c2cc(=O)c3c(O)cc(O)cc3o2)C=CC(=O)C=C1 [Compound 7] |  |  |  |  | 2.23 ± 0.13 µM | 3.95 ± 0.3 µM | 5.51 ± 0.21 µM | 7.03 ± 0.11 µM |  |  |  |  |
| CCOC1(c2cc(=O)c3c(O)cc(O)cc3o2)C=CC(=O)C=C1 [Compound 8] |  |  |  |  | 1.22 ± 0.03 µM | 2.5 ± 0.11 µM | 2.83 ± 0.12 µM | 1.73 ± 0.06 µM | 1.73 ± 0.06 µM | 3.79 ± 0.25 µM | 2.19 |  |
| CCCCOC1(c2cc(=O)c3c(O)cc(O)cc3o2)C=CC(=O)C=C1 [Compound 9] |  |  |  |  | 0.82 ± 0.05 µM | 2.01 ± 0.07 µM | 1.88 ± 0.1 µM | 1.5 ± 0.12 µM | 1.5 ± 0.12 µM | 3.56 ± 0.12 µM | 2.37 |  |
| CC1=C(CCC(=O)Oc2cc(O)c3c(=O)cc(C4(O)C=CC(=O)C=C4)oc3c2)C(=O)C(C(C)C)=CC1=O [Compound 10] |  |  |  |  | 1.27 ± 0.04 µM | 1.65 ± 0.07 µM | 2 ± 0.26 µM | 6.16 ± 0.49 µM |  |  |  |  |
| COC1(c2cc(=O)c3c(O)cc(OC(=O)CCC4=C(C)C(=O)C=C(C(C)C)C4=O)cc3o2)C=CC(=O)C=C1 [Compound 11, 5-hydroxy-2-(1-methoxy-4-oxocyclohexa-2,5-dien-1-yl)-4-oxo-4H-chromen-7-yl 3-(5-isopropyl-2-methyl-3,6-dioxocyclohexa-1,4-dien-1-yl)propanoate] |  |  |  |  | 2.25 ± 0.13 µM | 2.66 ± 0.11 µM | 3.51 ± 0.17 µM | 7.63 ± 0.46 µM |  |  |  | synergism |
| CCOC1(c2cc(=O)c3c(O)cc(OC(=O)CCC4=C(C)C(=O)C=C(C(C)C)C4=O)cc3o2)C=CC(=O)C=C1 [Compound 12, 2-(1-ethoxy-4-oxocyclohexa-2,5-dien-1-yl)-5-hydroxy-4-oxo-4H-chromen-7-yl 3-(5-isopropyl-2-methyl-3,6-dioxocyclohexa-1,4-dien-1-yl)propanoate] |  |  |  |  | 2.15 ± 0.08 µM | 3.21 ± 0.07 µM | 2.35 ± 0.15 µM | 8.22 ± 0.73 µM |  |  |  |  |
| CCCCOC1(c2cc(=O)c3c(O)cc(OC(=O)CCC4=C(C)C(=O)C=C(C(C)C)C4=O)cc3o2)C=CC(=O)C=C1 [Compound 13, 2-(1-butoxy-4-oxocyclohexa-2,5-dien-1-yl)-5-hydroxy-4-oxo-4H-chromen-7-yl 3-(5-isopropyl-2-methyl-3,6-dioxocyclohexa-1,4-dien-1-yl)propanoate] |  |  |  |  | 0.99 ± 0.05 µM | 1.68 ± 0.16 µM | 1.4 ± 0.25 µM | 3.43 ± 0.25 µM |  |  |  |  |
| COC1(c2cc(=O)c3c(O)cc(OC(=O)CCC4=C(C(C)C)C(=O)C=C(C)C4=O)cc3o2)C=CC(=O)C=C1 [Compound 15, 5-hydroxy-2-(1-methoxy-4-oxocyclohexa-2,5-dien-1-yl)-4-oxo-4H-chromen-7-yl 3-(2-isopropyl-5-methyl-3,6-dioxocyclohexa-1,4-dien-1-yl)propanoate] |  |  |  |  | 3.53 ± 0.17 µM | 5.44 ± 1.32 µM | 6.78 ± 0.28 µM | 18.9 ± 3.42 µM |  |  |  | no apparent difference |
| CCOC1(c2cc(=O)c3c(O)cc(OC(=O)CCC4=C(C(C)C)C(=O)C=C(C)C4=O)cc3o2)C=CC(=O)C=C1 [Compound 16, 2-(1-ethoxy-4-oxocyclohexa-2,5-dien-1-yl)-5-hydroxy-4-oxo-4H-chromen-7-yl 3-(2-isopropyl-5-methyl-3,6-dioxocyclohexa-1,4-dien-1-yl)propanoate] |  |  |  |  | 1.98 ± 0.06 µM | 4.11 ± 0.34 µM | 1.71 ± 0.16 µM | 6.06 ± 0.4 µM |  |  |  | no apparent difference |
| CCCCOC1(c2cc(=O)c3c(O)cc(OC(=O)CCC4=C(C(C)C)C(=O)C=C(C)C4=O)cc3o2)C=CC(=O)C=C1 [Compound 17, 2-(1-butoxy-4-oxocyclohexa-2,5-dien-1-yl)-5-hydroxy-4-oxo-4H-chromen-7-yl 3-(2-isopropyl-5-methyl-3,6-dioxocyclohexa-1,4-dien-1-yl)propanoate] |  |  |  |  | 1.08 ± 0.08 µM | 2.7 ± 0.09 µM | 3.08 ± 0.46 µM | 8.65 ± 1.15 µM |  |  |  |  |
| Cn1nnc2c(C(N)=O)ncn2c1=O [TMZ, temozolomide, reference compound] |  |  |  |  |  |  |  | 388 ± 43 µM | 388 ± 43 µM | 1090 ± 45.1 µM | 2.82 |  |
